Patent US20130059787A1, “METHODS OF USING HUMAN PROTEIN KINASE C DELTA VIII AS A BIOMARKER” (UNITED STATES DEPARTMENT OF VETERAN AFFAIRS, priority 2010, published 2013)

What was measured:
SC35 (SRp30b) = assay: Western blot of NT2 whole cell lysates with specific antibodies; format: cell-based, human; settings: RA about 10 μM, about 24 h; NT2 cells
Experimental: (§1) FIG. 6 is a series of images illustrating the detection of SR proteins involved in RA-mediated PKXδVIII expression. NT2 cells were treated with RA (about 10 μM) for about 24 h or without RA (control), and Western blot analysis was performed on whole cell lysates using (a) mAb104 antibody that detects all SR proteins and (b) specific antibodies as indicated in the figure. Molecular masses are indicated (kDa).
(§2) Cell lysates (about 40 μg) were separated on 10% SDS-PAGE. […] In apoptotic cells, PARP is cleaved by caspase 3 into an 85 kDa fragment which is detected in addition to the 116 KDa fragment using anti-PARP antibody in western blot analysis. […] (Putt K S, Beilman G J, and H. P J., Direct quantitation of poly(ADP-ribose) polymerase (PARP) activity as a means to distinguish necrotic and apoptotic death in cell and tissue samples. Chembiochem, 2005. 6: p. 53-55)
(§3) (SR) proteins that bind to exonic or intronic splicing enhancers (ESE, ISE) on the pre-mRNA. […] NT2 cells were treated with or without RA (about 24 h), and whole cell lysates were analyzed by Western blot analysis using mAb104 antibody that simultaneously detects the phosphoepitopes on all SR proteins. […]

SF2/ASF (SRp30a) = assay: as above; format: cell-based, human; settings: RA about 10 μM, about 24 h; NT2 cells
Experimental: as §1, §2, §3

[1] = tested on: 5′ splice site II on PKCδ exon 10; assay: Mutated pSPL3_PKCδ** minigene (SC35 cis-element mutated) in NT2 cells, RT-PCR; format: cell-based, human; settings: RA about 10 μM, about 24 h
From the text: FIG. 11 is a series of images depicting mutation of putative SC35 binding site inhibits RA-mediated utilization of 5′ splice site II utilization on the minigene. (a) schematic of the position and sequence of the putative SC35 cis-element on the pSPL3_PKCδ splicing minigene. Arrows indicate the position of primers used in PCR analysis. Putative SC35 binding site ggccaaag (SEQ ID No: 17) was mutated to tagcccaga (SEQ ID No: 18) on the minigene. (b) resulting mutated minigene pSPL3_PKCδ** was transfected into NT2 cells. In separate wells, the mutated minigene pSPL3_PKCδ** was co-transfected with either about 2 μg of SC35 or SF2/ASF. The original pSPL3_PKCδ splicing minigene was also transfected in a separate well. After overnight transfection, NT2 cells were treated with or without about 10 μM RA for about 24 h. Total RNA was extracted and RT-PCR performed using primers for PKCδ exon 10 sense and SA antisense as shown. About 5% of the products were separated by PAGE and silver stained for visualization. SSI: usage of 5′ splice site I; SSII: usage of 5′ splice site II. Graph represents percent exon inclusion calculated as SS II/(SS II+SSI)×100 and is representative of three experiments performed separately. […]

PKCδVIII mRNA = settings: RA about 24 h; Jiang et al. 2008; cited from earlier work
ischemic stroke = settings: RA injections immediately and following ischemia; cited from earlier work

For `CC1=C(/C=C/C(C)=C/C=C/C(C)=C/C(=O)O)C(C)(C)CCC1` [RA, all-trans-retinoic acid], which “SC35 (SRp30b) expression” value (SC35 (SRp30b)) is on record?
The value was “increase”.

What about the “SF2/ASF (SRp30a) expression” value (SF2/ASF (SRp30a)) of the same compound?
The value was “remained relatively constant”.

What about the “selection of 5′ splice site II on PKCδ exon 10 in pSPL3_PKCδ**-mutated minigene” value [1] of the same compound?
Its value is “did not promote”.

What about the “expression of PKCδVIII in NT2 cells” value (PKCδVIII mRNA) of the same compound?
Its value is “significantly increases”.

And the infarct volume (ischemic stroke)?
Its infarct volume is “reduced”.
